US10760110B2, “Antibiotic testing and screening system” (priority 2017, dated 2020)
Like-named read-outs stand apart in the source and are kept apart here.

Tested on: K. pneumoniae NVT1001 strains with ESBL or AmpC β-lactamase plasmids
Test: Etest MIC of β-lactams, OmpK35/36 loss, ΔramR and/or extended-spectrum β-lactamase and AmpC β-lactamase (Table 8)
Assay type: cell-based, Klebsiella pneumoniae
Conditions: for MIC: Klebsiella pneumoniae
Method: DNA fragments of the resistance genes along with their flanking regions were amplified from clinical plasmids via PCR with specific primer pairs. The resulting PCR fragments were digested and then cloned into the plasmid pACYC177 or pACYC184. The resulting plasmids were then transformed into K. pneumoniae strain NVT1001 via electroporation. The recombinant bacteria were plated onto LB agar plates containing kanamycin (50 mg/L) or chloramphenicol (50 mg/L), and the presence of the cloned gene was confirmed via PCR and DNA sequencing.
The MICs of antibiotics were determined using the Etest (Biodisk AB, Sweden) according to the manufacturer's instructions. The MICs from the Etest, which fall between standard two-fold dilutions, were rounded up to the next highest two-fold value. The MICs of ceftazidime and cefotaxime against K. pneumoniae NVT1001 harbouring the pACYC177 plasmid with blaOXA-48 were further determined using a broth microdilution test according to the recommendations of the CLSI,^25 and the results were interpreted according to the breakpoints established by the CLSI in 2017.^25 Meanwhile, due to the lack of CLSI breakpoints in 2016 and 2017, the results for cephalothin were interpreted according to the breakpoints established by the CLSI in 2015,^26 and the results for moxifloxacin were interpreted according to the breakpoints established by the EUCAST in 2017.^27

[1] = CMY-2 on pACYC177, WT (NVT1001), read-out: MIC
[2] = CMY-2 on pACYC177, Δ35 (ΔompK35 mutant)
[3] = CMY-2 on pACYC177, Δ35/36 (ΔompK35/36 mutant)
[4] = CMY-2 on pACYC177, Δ36 (ΔompK36 mutant)
[5] = CMY-2 on pACYC177, ΔramR mutant
[6] = CMY-2 on pACYC177, ΔramRΔ35 (ΔramRΔompK35 mutant)
[7] = CMY-2 on pACYC177, ΔramRΔ35/36 (ΔramRΔompK35/36 mutant)
[8] = CMY-2 on pACYC177, ΔramRΔ36 (ΔramRΔompK36 mutant)
[9] = CTX-M-14 on pACYC177, WT (NVT1001), read-out: MIC
[10] = CTX-M-14 on pACYC177, Δ35 (ΔompK35 mutant)
[11] = CTX-M-14 on pACYC177, Δ35/36 (ΔompK35/36 mutant)
[12] = CTX-M-14 on pACYC177, Δ36 (ΔompK36 mutant)
[13] = CTX-M-14 on pACYC177, ΔramR mutant
[14] = CTX-M-14 on pACYC177, ΔramRΔ35 (ΔramRΔompK35 mutant)
[15] = CTX-M-14 on pACYC177, ΔramRΔ35/36 (ΔramRΔompK35/36 mutant)
[16] = CTX-M-14 on pACYC177, ΔramRΔ36 (ΔramRΔompK36 mutant)
[17] = CTX-M-15 on pACYC177, WT (NVT1001), read-out: MIC
[18] = CTX-M-15 on pACYC177, Δ35 (ΔompK35 mutant)
[19] = CTX-M-15 on pACYC177, Δ35/36 (ΔompK35/36 mutant)
[20] = CTX-M-15 on pACYC177, Δ36 (ΔompK36 mutant)
[21] = CTX-M-15 on pACYC177, ΔramR mutant
[22] = CTX-M-15 on pACYC177, ΔramRΔ35 (ΔramRΔompK35 mutant)
[23] = CTX-M-15 on pACYC177, ΔramRΔ35/36 (ΔramRΔompK35/36 mutant)
[24] = CTX-M-15 on pACYC177, ΔramRΔ36 (ΔramRΔompK36 mutant)
[25] = DHA-1-AmpR on pACYC177, WT (NVT1001), read-out: MIC
[26] = DHA-1-AmpR on pACYC177, Δ35 (ΔompK35 mutant)
[27] = DHA-1-AmpR on pACYC177, Δ35/36 (ΔompK35/36 mutant)
[28] = DHA-1-AmpR on pACYC177, Δ36 (ΔompK36 mutant)
[29] = DHA-1-AmpR on pACYC177, ΔramR mutant
[30] = DHA-1-AmpR on pACYC177, ΔramRΔ35 (ΔramRΔompK35 mutant)
[31] = DHA-1-AmpR on pACYC177, ΔramRΔ35/36 (ΔramRΔompK35/36 mutant)
[32] = DHA-1-AmpR on pACYC177, ΔramRΔ36 (ΔramRΔompK36 mutant)
[33] = SHV-12 on pACYC177, WT (NVT1001), read-out: MIC
[34] = SHV-12 on pACYC177, Δ35 (ΔompK35 mutant)
[35] = SHV-12 on pACYC177, Δ35/36 (ΔompK35/36 mutant)
[36] = SHV-12 on pACYC177, Δ36 (ΔompK36 mutant)
[37] = SHV-12 on pACYC177, ΔramR mutant
[38] = SHV-12 on pACYC177, ΔramRΔ35 (ΔramRΔompK35 mutant)
[39] = SHV-12 on pACYC177, ΔramRΔ35/36 (ΔramRΔompK35/36 mutant)
[40] = SHV-12 on pACYC177, ΔramRΔ36 (ΔramRΔompK36 mutant)
[41] = no supplemental plasmid, WT (NVT1001), read-out: MIC
[42] = no supplemental plasmid, Δ35 (ΔompK35 mutant)
[43] = no supplemental plasmid, Δ35/36 (ΔompK35/36 mutant)
[44] = no supplemental plasmid, Δ36 (ΔompK36 mutant)
[45] = no supplemental plasmid, ΔramR mutant
[46] = no supplemental plasmid, ΔramRΔ35 (ΔramRΔompK35 mutant)
[47] = no supplemental plasmid, ΔramRΔ35/36 (ΔramRΔompK35/36 mutant)
[48] = no supplemental plasmid, ΔramRΔ36 (ΔramRΔompK36 mutant)

With CO[C@@]1(NC(=O)Cc2cccs2)C(=O)N2C(C(=O)O)=C(COC(N)=O)CS[C@@H]21 [Cefoxitin] the MIC [1] was over 256 µg/mL, the MIC [2] was over 256 µg/mL and the MIC [3] was over 256 µg/mL. For the same molecule, the MIC [4] was over 256 µg/mL, the MIC [5] was over 256 µg/mL and the MIC [6] was over 256 µg/mL. For the same molecule, the MIC [7] was over 256 µg/mL, the MIC [8] was over 256 µg/mL and the MIC [9] was 4 µg/mL. It also gave an MIC [10] of 8 µg/mL, an MIC [11] of 64 µg/mL and an MIC [12] of 16 µg/mL. The MIC [13] was 64 µg/mL, the MIC [14] was 64 µg/mL and the MIC [15] was over 256 µg/mL. For the same molecule, the MIC [16] was over 256 µg/mL, the MIC [17] was 4 µg/mL and the MIC [18] was 8 µg/mL. It also gave an MIC [19] of 64 µg/mL, an MIC [20] of 16 µg/mL and an MIC [21] of 64 µg/mL. It also gave an MIC [22] of 64 µg/mL, an MIC [23] of over 256 µg/mL and an MIC [24] of over 256 µg/mL. For the same molecule, the MIC [25] was over 256 µg/mL, the MIC [26] was over 256 µg/mL and the MIC [27] was over 256 µg/mL. It also gave an MIC [28] of over 256 µg/mL, an MIC [29] of over 256 µg/mL and an MIC [30] of over 256 µg/mL. The MIC [31] was over 256 µg/mL, the MIC [32] was over 256 µg/mL and the MIC [33] was 4 µg/mL. For the same molecule, the MIC [34] was 8 µg/mL, the MIC [35] was 128 µg/mL and the MIC [36] was 16 µg/mL. It also gave an MIC [37] of 64 µg/mL, an MIC [38] of 64 µg/mL and an MIC [39] of over 256 µg/mL. It also gave an MIC [40] of over 256 µg/mL, an MIC [41] of 4 µg/mL and an MIC [42] of 4 µg/mL. The MIC [43] was 128 µg/mL, the MIC [44] was 16 µg/mL and the MIC [45] was 64 µg/mL. For the same molecule, the MIC [46] was 64 µg/mL, the MIC [47] was over 256 µg/mL and the MIC [48] was over 256 µg/mL. The “effects on the MIC” value (production of ESBLs tested alone) was “no significant (≥4-fold) effects”.
For CCO/N=C(\C(=O)N[C@@H]1C(=O)N2C(C(=O)[O-])=C(Sc3nc(-c4cc[n+](C)cc4)cs3)CS[C@H]12)c1nsc(N)n1 [Ceftaroline], the MIC [1] was 64 µg/mL, the MIC [2] was 64 µg/mL and the MIC [3] was over 256 µg/mL. For the same molecule, the MIC [4] was 256 µg/mL, the MIC [5] was 64 µg/mL and the MIC [6] was 64 µg/mL. For the same molecule, the MIC [7] was 128 µg/mL, the MIC [8] was 256 µg/mL and the MIC [9] was 128 µg/mL. It also gave an MIC [10] of over 256 µg/mL, an MIC [11] of over 256 µg/mL and an MIC [12] of over 256 µg/mL. It also gave an MIC [13] of over 256 µg/mL, an MIC [14] of over 256 µg/mL and an MIC [15] of over 256 µg/mL. It also gave an MIC [16] of over 256 µg/mL, an MIC [17] of over 256 µg/mL and an MIC [18] of over 256 µg/mL. The MIC [19] was over 256 µg/mL, the MIC [20] was over 256 µg/mL and the MIC [21] was over 256 µg/mL. It also gave an MIC [22] of over 256 µg/mL, an MIC [23] of over 256 µg/mL and an MIC [24] of over 256 µg/mL. It also gave an MIC [25] of 8 µg/mL, an MIC [26] of 8 µg/mL and an MIC [27] of 16 µg/mL. It also gave an MIC [28] of 8 µg/mL, an MIC [29] of 8 µg/mL and an MIC [30] of 8 µg/mL. The MIC [31] was 16 µg/mL, the MIC [32] was 16 µg/mL and the MIC [33] was 16 µg/mL. It also gave an MIC [34] of 16 µg/mL, an MIC [35] of 64 µg/mL and an MIC [36] of 16 µg/mL. For the same molecule, the MIC [37] was 16 µg/mL, the MIC [38] was 16 µg/mL and the MIC [39] was 32 µg/mL. The MIC [40] was 32 µg/mL, the MIC [41] was 0.25 µg/mL and the MIC [42] was 0.25 µg/mL. The MIC [43] was 1 µg/mL, the MIC [44] was 0.5 µg/mL and the MIC [45] was 1 µg/mL. The MIC [46] was 1 µg/mL, the MIC [47] was 4 µg/mL and the MIC [48] was 4 µg/mL.
